From US20250296971A1, “GASTRIC INHIBITORY PEPTIDE RECEPTOR LIGANDS” (priority 2021, published 2025)
*1 amine or outer side, *2 acyl side, *3 side chain or, on linkers, in order; H or OH if unused. Where a SMILES comes first, the peptide text is derived from it. Bridges are numbered along the chain shown (N, C = ends). [ ]: non-standard residue; d: D form. The star is where a group is joined. X3 = O=C(O)CN1CCN(CC(=O)O)CCN(CC(=O)NCCCOCCOCCOCCCN*)CCN(CC(=O)O)CC1; Pro(trans-4-NH2) = O=C([C@@H]1C[C@@H](N[*:3])CN1[*:1])[*:2]; DOTA = O=C(O)CN1CCN(CC(=O)O)CCN(CC(=O)*)CCN(CC(=O)O)CC1; Trp(5-Cl) = N[C@@H](Cc1c[nH]c2ccc(Cl)cc12)C(=O)O; Pyridine(2,6-diCH2) = c1cc(C[*:1])nc(C[*:2])c1; Trp(5-F) = N[C@@H](Cc1c[nH]c2ccc(F)cc12)C(=O)O; Phe(2-Cl) = N[C@@H](Cc1ccccc1Cl)C(=O)O; 1Nal = N[C@@H](Cc1cccc2ccccc12)C(=O)O; Hyp = O=C(O)[C@@H]1C[C@@H](O)CN1; Cha = N[C@@H](CC1CCCCC1)C(=O)O; Suc = O=C(CCC(=O)[*:2])[*:1]; Thp = NC1(C(=O)O)CCOCC1

The compounds below were run against T1, GIPR (CHO-K1-hGIPR cells) (Homo sapiens, UniProt P48546) (assay: FACS binding assay). Conditions: competition with 20 nM GIP-057, 4° C. for 1 hour, read-out: pIC50 Category (converted).
T1 construct: host or cells: CHO-K1
T1 sequence (P48546 22-466): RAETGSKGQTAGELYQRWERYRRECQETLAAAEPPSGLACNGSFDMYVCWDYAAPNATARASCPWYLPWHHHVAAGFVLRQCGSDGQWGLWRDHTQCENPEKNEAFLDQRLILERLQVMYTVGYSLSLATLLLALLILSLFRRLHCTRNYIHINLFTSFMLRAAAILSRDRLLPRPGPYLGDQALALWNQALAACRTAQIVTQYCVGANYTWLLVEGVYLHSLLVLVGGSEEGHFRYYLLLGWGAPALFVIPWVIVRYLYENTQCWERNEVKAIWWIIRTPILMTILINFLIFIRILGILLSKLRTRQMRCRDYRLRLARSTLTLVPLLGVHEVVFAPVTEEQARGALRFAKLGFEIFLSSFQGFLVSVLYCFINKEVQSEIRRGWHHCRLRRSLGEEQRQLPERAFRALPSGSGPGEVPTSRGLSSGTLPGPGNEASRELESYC
Method in brief: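 Peptide binding read by flow cytometry as APC-channel median fluorescence, fitted with a four-parameter logistic to yield EC50 or IC50. Cells were hGIPR-transfected CHO-K1 in PBS with 1% FCS, detected with 1 μg/mL APC-streptavidin, 30 min on ice.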

Row | SMILES | IC50 [nM]
1 | CC[C@H](C)[C@@H]1NC(=O)[C@H](CC(C)C)NC(=O)C2(CCOCC2)NC(=O)[C@@H](NC(=O)[C@@H](CC(C)C)NC(=O)[C@H](CCC(=O)O)NC(=O)[C@@H]2C[C@@H](O)CN2C(=O)[C@H](Cc2c[nH]c3ccc(Cl)cc23)NC(=O)[C@H](Cc2c[nH]c3ccc(Cl)cc23)NC(=O)[C@H](CC(=O)O)NC(C)=O)CSCc2cccc(n2)CSC[C@@H](C(N)=O)NC1=O [GIP-379, Ac-Asp-5Clw-5Clw-Hyp-Glu-leu-[Cys(2Lut)-Thp-Leu-Ile-Cys]-NH2] (Ac-D[Trp(5-Cl)][Trp(5-Cl)][Hyp]E[dL]C[Thp]LIC-NH2; linker 7-11 via Pyridine(2,6-diCH2)) | < 10
2 | CC[C@H](C)[C@@H]1NC(=O)[C@H](CC(C)C)NC(=O)C2(CCOCC2)NC(=O)[C@@H](NC(=O)[C@@H](CC(C)C)NC(=O)[C@H](CCC(=O)O)NC(=O)[C@@H]2C[C@@H](O)CN2C(=O)[C@H](Cc2c[nH]c3ccc(Cl)cc23)NC(=O)[C@H](Cc2cccc3ccccc23)NC(=O)[C@H](CC(=O)O)NC(C)=O)CSCc2cccc(n2)CSC[C@@H](C(N)=O)NC1=O [GIP-380, Ac-Asp-1Ni-5Clw-Hyp-Glu-leu-[Cys(2Lut)-Thp-Leu-Ile-Cys]-NH2] (Ac-D[1Nal][Trp(5-Cl)][Hyp]E[dL]C[Thp]LIC-NH2; linker 7-11 via Pyridine(2,6-diCH2)) | < 10
3 | CC[C@H](C)[C@@H]1NC(=O)[C@H](CC(C)C)NC(=O)C2(CCOCC2)NC(=O)[C@@H](NC(=O)[C@@H](CC(C)C)NC(=O)[C@H](CCC(=O)O)NC(=O)[C@@H]2C[C@@H](O)CN2C(=O)[C@H](Cc2c[nH]c3ccc(Cl)cc23)NC(=O)[C@H](Cc2c[nH]c3ccccc23)NC(=O)[C@@H](CC(=O)O)NC(C)=O)CSCc2cccc(n2)CSC[C@@H](C(N)=O)NC1=O [GIP-381, Ac-asp-Trp-5Clw-Hyp-Glu-leu-[Cys(2Lut)-Thp-Leu-Ile-Cys]-NH2] (Ac-[dD]W[Trp(5-Cl)][Hyp]E[dL]C[Thp]LIC-NH2; linker 7-11 via Pyridine(2,6-diCH2)) | < 10
4 | CC[C@H](C)[C@@H]1NC(=O)[C@H](CC(C)C)NC(=O)C2(CCOCC2)NC(=O)[C@@H](NC(=O)[C@@H](CC(C)C)NC(=O)[C@H](CCC(=O)O)NC(=O)[C@@H]2C[C@@H](O)CN2C(=O)[C@H](Cc2c[nH]c3ccc(Cl)cc23)NC(=O)[C@H](Cc2c[nH]c3ccc(F)cc23)NC(=O)[C@H](CC(=O)O)NC(C)=O)CSCc2cccc(n2)CSC[C@@H](C(N)=O)NC1=O [GIP-382, Ac-Asp-5Fw-5Clw-Hyp-Glu-leu-[Cys(2Lut)-Thp-Leu-Ile-Cys]-NH2] (Ac-D[Trp(5-F)][Trp(5-Cl)][Hyp]E[dL]C[Thp]LIC-NH2; linker 7-11 via Pyridine(2,6-diCH2)) | < 10
5 | CC[C@H](C)[C@@H]1NC(=O)[C@H](CC2CCCCC2)NC(=O)C2(CCOCC2)NC(=O)[C@@H](NC(=O)[C@@H](CC(C)C)NC(=O)[C@H](CCC(=O)O)NC(=O)[C@@H]2C[C@@H](O)CN2C(=O)[C@H](Cc2c[nH]c3ccc(Cl)cc23)NC(=O)[C@H](Cc2c[nH]c3ccccc23)NC(=O)[C@H](CC(=O)O)NC(C)=O)CSCc2cccc(n2)CSC[C@@H](C(N)=O)NC1=O [GIP-383, Ac-Asp-Trp-5Clw-Hyp-Glu-leu-[Cys(2Lut)-Thp-Cha-Ile-Cys]-NH2] (Ac-DW[Trp(5-Cl)][Hyp]E[dL]C[Thp][Cha]IC-NH2; linker 7-11 via Pyridine(2,6-diCH2)) | < 10
6 | CC[C@H](C)[C@@H]1NC(=O)[C@H](CC(C)C)NC(=O)C2(CCOCC2)NC(=O)[C@@H](NC(=O)[C@@H](CC(C)C)NC(=O)[C@H](CO)NC(=O)[C@@H]2C[C@@H](O)CN2C(=O)[C@H](Cc2c[nH]c3ccc(Cl)cc23)NC(=O)[C@H](Cc2c[nH]c3ccccc23)NC(=O)[C@H](CC(=O)O)NC(C)=O)CSCc2cccc(n2)CSC[C@@H](C(N)=O)NC1=O [GIP-384, Ac-Asp-Trp-5Clw-Hyp-Ser-leu-[Cys(2Lut)-Thp-Leu-Ile-Cys]-NH2] (Ac-DW[Trp(5-Cl)][Hyp]S[dL]C[Thp]LIC-NH2; linker 7-11 via Pyridine(2,6-diCH2)) | < 10
7 | CC[C@H](C)[C@@H]1NC(=O)[C@H](CC(C)C)NC(=O)C2(CCOCC2)NC(=O)[C@@H](NC(=O)[C@@H](CC(C)C)NC(=O)[C@@H](NC(=O)[C@@H]2C[C@@H](O)CN2C(=O)[C@H](Cc2c[nH]c3ccc(Cl)cc23)NC(=O)[C@H](Cc2c[nH]c3ccccc23)NC(=O)[C@H](CC(=O)O)NC(C)=O)C(C)C)CSCc2cccc(n2)CSC[C@@H](C(N)=O)NC1=O [GIP-385, Ac-Asp-Trp-5Clw-Hyp-Val-leu-[Cys(2Lut)-Thp-Leu-Ile-Cys]-NH2] (Ac-DW[Trp(5-Cl)][Hyp]V[dL]C[Thp]LIC-NH2; linker 7-11 via Pyridine(2,6-diCH2)) | < 10

Second part, the compound after the results:

Row | IC50 [nM] | SMILES
8 | < 10 | CC[C@H](C)[C@@H]1NC(=O)[C@H](CC(C)C)NC(=O)C2(CCOCC2)NC(=O)[C@@H](NC(=O)[C@@H](CC(C)C)NC(=O)[C@H](C)NC(=O)[C@@H]2C[C@@H](O)CN2C(=O)[C@H](Cc2c[nH]c3ccc(Cl)cc23)NC(=O)[C@H](Cc2c[nH]c3ccccc23)NC(=O)[C@H](CC(=O)O)NC(C)=O)CSCc2cccc(n2)CSC[C@@H](C(N)=O)NC1=O [GIP-386, Ac-Asp-Trp-5Clw-Hyp-Ala-leu-[Cys(2Lut)-Thp-Leu-Ile-Cys]-NH2] (Ac-DW[Trp(5-Cl)][Hyp]A[dL]C[Thp]LIC-NH2; linker 7-11 via Pyridine(2,6-diCH2))
9 | 10 to 79.4 | CC[C@H](C)[C@@H]1NC(=O)[C@H](CC(C)C)NC(=O)C2(CCOCC2)NC(=O)[C@@H](NC(=O)[C@@H](CC(C)C)NC(=O)[C@H](CCC(=O)O)NC(=O)[C@@H]2C[C@@H](O)CN2C(=O)[C@H](Cc2c[nH]c3ccc(Cl)cc23)NC(=O)[C@H](Cc2ccccc2Cl)NC(=O)[C@H](CC(=O)O)NC(=O)CCC(=O)NCCCOCCOCCOCCCNC(=O)CN2CCN(CC(=O)O)CCN(CC(=O)O)CCN(CC(=O)O)CC2)CSCc2cccc(n2)CSC[C@@H](C(N)=O)NC1=O [GIP-387, DOTA-Ttds-Asp-Ocf-5Clw-Hyp-Glu-leu-[Cys(2Lut)-Thp-Leu-Ile-Cys]-NH2] ({X3-Suc}-D[Phe(2-Cl)][Trp(5-Cl)][Hyp]E[dL]C[Thp]LIC-NH2; linker 7-11 via Pyridine(2,6-diCH2))
10 | 10 to 79.4 | CC(C)C[C@@H]1NC(=O)C2(CCOCC2)NC(=O)[C@@H](NC(=O)[C@@H](CC(C)C)NC(=O)[C@H](CCC(=O)O)NC(=O)[C@@H]2C[C@@H](O)CN2C(=O)[C@H](Cc2c[nH]c3ccc(Cl)cc23)NC(=O)[C@H](Cc2c[nH]c3ccccc23)NC(=O)[C@H](CC(=O)O)NC(=O)CCC(=O)NCCCOCCOCCOCCCNC(=O)CN2CCN(CC(=O)O)CCN(CC(=O)O)CCN(CC(=O)O)CC2)CSCc2cccc(n2)CSC[C@@H](C(N)=O)NC(=O)[C@H](Cc2ccccc2)NC1=O [GIP-388, DOTA-Ttds-Asp-Trp-5Clw-Hyp-Glu-leu-[Cys(2Lut)-Thp-Leu-Phe-Cys]-NH2] ({X3-Suc}-DW[Trp(5-Cl)][Hyp]E[dL]C[Thp]LFC-NH2; linker 7-11 via Pyridine(2,6-diCH2))
11 | 10 to 79.4 | CC(=O)N[C@@H](CC(=O)O)C(=O)N[C@@H](Cc1c[nH]c2ccccc12)C(=O)N[C@@H](Cc1c[nH]c2ccc(Cl)cc12)C(=O)N1C[C@H](O)C[C@H]1C(=O)N[C@@H](CCC(=O)O)C(=O)N[C@H](CC(C)C)C(=O)N[C@H]1CSCc2cccc(n2)CSC[C@@H](C(=O)N[C@H](CCCCNC(=O)CN2CCN(CC(=O)O)CCN(CC(=O)O)CCN(CC(=O)O)CC2)C(N)=O)NC(=O)[C@H](Cc2ccccc2)NC(=O)[C@H](CC(C)C)NC(=O)C2(CCOCC2)NC1=O [GIP-389, Ac-Asp-Trp-5Clw-Hyp-Glu-leu-[Cys(2Lut)-Thp-Leu-Phe-Cys]-lys (DOTA)-NH2] (Ac-DW[Trp(5-Cl)][Hyp]E[dL]C[Thp]LFC[dK](DOTA)-NH2; linker 7-11 via Pyridine(2,6-diCH2))
12 | 10 to 79.4 | CC[C@H](C)[C@@H]1NC(=O)[C@H](CC(C)C)NC(=O)C2(CCOCC2)NC(=O)[C@@H](NC(=O)[C@@H](CC(C)C)NC(=O)[C@H](CCC(=O)O)NC(=O)[C@@H]2C[C@@H](NC(=O)CN3CCN(CC(=O)O)CCN(CC(=O)O)CCN(CC(=O)O)CC3)CN2C(=O)[C@H](Cc2c[nH]c3ccc(Cl)cc23)NC(=O)[C@H](Cc2ccccc2Cl)NC(=O)[C@H](CC(=O)O)NC(C)=O)CSCc2cccc(n2)CSC[C@@H](C(N)=O)NC1=O [GIP-390, Ac-Asp-Ocf-5Clw-Tap (DOTA)-Glu-leu-[Cys(2Lut)-Thp-Leu-Ile-Cys]-NH2] (Ac-D[Phe(2-Cl)][Trp(5-Cl)][Pro(trans-4-NH2)](DOTA)E[dL]C[Thp]LIC-NH2; linker 7-11 via Pyridine(2,6-diCH2))
13 | 10 to 79.4 | CC(=O)N[C@@H](CC(=O)O)C(=O)N[C@@H](Cc1c[nH]c2ccccc12)C(=O)N[C@@H](Cc1c[nH]c2ccc(Cl)cc12)C(=O)N1C[C@H](NC(=O)CN2CCN(CC(=O)O)CCN(CC(=O)O)CCN(CC(=O)O)CC2)C[C@H]1C(=O)N[C@@H](CCC(=O)O)C(=O)N[C@H](CC(C)C)C(=O)N[C@H]1CSCc2cccc(n2)CSC[C@@H](C(N)=O)NC(=O)[C@H](Cc2ccccc2)NC(=O)[C@H](CC(C)C)NC(=O)C2(CCOCC2)NC1=O [GIP-391, Ac-Asp-Trp-5Clw-Tap (DOTA)-Glu-leu-[Cys(2Lut)-Thp-Leu-Phe-Cys]-NH2] (Ac-DW[Trp(5-Cl)][Pro(trans-4-NH2)](DOTA)E[dL]C[Thp]LFC-NH2; linker 7-11 via Pyridine(2,6-diCH2))
